Laboratory results published in patent publication US7718391B2, “Assays for identifying modulators of rhomboid polypeptides” (Medical Research Council, priority 2001, dated 2010).
Where two headings read alike, the source gives them in different places. Non-standard residues stand in square brackets, D forms with d. Residues, ends and D or L forms follow the SMILES beside them. *: point of attachment. Sta = CC(C)C[C@H](N)[C@@H](O)CC(=O)O; Isovaleryl = CC(C)CC(=O)*; Nle = CCCC[C@H](N)C(=O)O; Cbz = O=C(OCc1ccccc1)*

What was measured:
Rhomboid-1 = target: T1, Rhomboid-1 (Drosophila melanogaster, UniProt P20350); test: Rhomboid-1 and Star dependent cleavage of GFP-Spitz in transfected COS cells (western blot of medium); format: cell-based
T1 construct: When co-expressed with Star and full-length Rhomboid-1 in the COS cell Spitz cleavage assay; expressed in transfected cells; host or cells: COS cells, pcDNA3.1 constructs, transient transfection
T1 sequence (P20350 1-355): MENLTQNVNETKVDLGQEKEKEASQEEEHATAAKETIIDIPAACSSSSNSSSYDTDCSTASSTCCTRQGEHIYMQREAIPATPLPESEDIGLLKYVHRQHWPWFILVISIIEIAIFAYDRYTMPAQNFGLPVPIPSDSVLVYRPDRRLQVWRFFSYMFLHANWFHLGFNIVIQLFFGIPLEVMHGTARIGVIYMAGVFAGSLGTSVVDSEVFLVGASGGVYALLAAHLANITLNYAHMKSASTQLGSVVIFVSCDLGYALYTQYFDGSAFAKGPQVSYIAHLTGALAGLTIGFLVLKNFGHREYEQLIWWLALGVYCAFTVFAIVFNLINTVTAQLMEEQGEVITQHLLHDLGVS
Experimental: COS cells were grown in DMEM medium (supplemented with 10% foetal calf serum), and transfected with FuGENE 6 Transfection Reagent (Roche). Cells were transfected in 35 mm culture wells with 25-250 ng of each construct and empty plasmid to bring the total DNA to 1 μg per well. 24-30 hours post-transfection the medium was replaced with serum-free medium; this was harvested 24 hours later and cells were lysed in SDS-sample buffer. GFP was detected in conditioned medium and cell lysates by western blot with a rabbit polyclonal antibody. For some experiments the serum-free medium was supplemented with the metalloprotease inhibitor batimastat (British Biotech) or ilomostat (Calbiochem). Cells were transfected as standard with 1 ng of Rhomboid-1 DNA (in 1 μg total DNA) and were then incubated in serum-free medium for 24 hours. The medium was then replaced with 0.5 ml serum free medium containing protease inhibitor at the indicated concentration and incubated for 1 hour. After 1 hour, the medium was collected, cleared by centrifugation, dialysed overnight against several changes of water and lyophilised. The resulting pellets were re-suspended in SDS sample buffer, boiled and analysed by Western blot. Transfections with a secreted form of Spitz were used in parallel to control for non-specific toxicity of the protease inhibitors or general inhibition of the secretory pathway. The proteolytic cleavage assay was recapitulated in a mammalian tissue culture system. Spitz was tagged with GFP near its N-terminus and transiently expressed in COS cells, in the presence or absence of Star and/or Rhomboid-1. The accumulation of the soluble extracellular fragment of GFP-Spitz in the cell medium was then measured by western blot.

[1] = system: artificially truncated form of Spitz; test: Control: expression or secretion of an artificially truncated (secreted) form of Spitz; format: cell-based, Drosophila; settings: this concentration (10-100:M)
Experimental: Cells were transfected as standard with 1 ng of Rhomboid-1 DNA (in 1 μg total DNA) and were then incubated in serum-free medium for 24 hours. The medium was then replaced with 0.5 ml serum free medium containing protease inhibitor at the indicated concentration and incubated for 1 hour. After 1 hour, the medium was collected, cleared by centrifugation, dialysed overnight against several changes of water and lyophilised. The resulting pellets were re-suspended in SDS sample buffer, boiled and analysed by Western blot. Transfections with a secreted form of Spitz were used in parallel to control for non-specific toxicity of the protease inhibitors or general inhibition of the secretory pathway.

[2] = system: uncleavable Spitz-TGFα chimera (Spitz with residues 140-160 replaced by the equivalent residues from TGFα, with the TGFα C-terminus)
[3] = system: uncleavable Spitz-TGFα chimera with Spitz residue G143 restored in the TGFα TMD
[4] = target: uncleavable Spitz-TGFα chimera (Spitz with residues 140-160 replaced by the equivalent residues from TGFα, with the TGFα C-terminus); remark: listed apart in the source
[5] = target: uncleavable Spitz-TGFα chimera with Spitz residue G143 restored in the TGFα TMD; remark: listed apart in the source
[6] = target: human TGFα (EGFP inserted between residues 32 and 33)
[7] = target: T2, Drosophila EGF receptor, P04412
T2 chain: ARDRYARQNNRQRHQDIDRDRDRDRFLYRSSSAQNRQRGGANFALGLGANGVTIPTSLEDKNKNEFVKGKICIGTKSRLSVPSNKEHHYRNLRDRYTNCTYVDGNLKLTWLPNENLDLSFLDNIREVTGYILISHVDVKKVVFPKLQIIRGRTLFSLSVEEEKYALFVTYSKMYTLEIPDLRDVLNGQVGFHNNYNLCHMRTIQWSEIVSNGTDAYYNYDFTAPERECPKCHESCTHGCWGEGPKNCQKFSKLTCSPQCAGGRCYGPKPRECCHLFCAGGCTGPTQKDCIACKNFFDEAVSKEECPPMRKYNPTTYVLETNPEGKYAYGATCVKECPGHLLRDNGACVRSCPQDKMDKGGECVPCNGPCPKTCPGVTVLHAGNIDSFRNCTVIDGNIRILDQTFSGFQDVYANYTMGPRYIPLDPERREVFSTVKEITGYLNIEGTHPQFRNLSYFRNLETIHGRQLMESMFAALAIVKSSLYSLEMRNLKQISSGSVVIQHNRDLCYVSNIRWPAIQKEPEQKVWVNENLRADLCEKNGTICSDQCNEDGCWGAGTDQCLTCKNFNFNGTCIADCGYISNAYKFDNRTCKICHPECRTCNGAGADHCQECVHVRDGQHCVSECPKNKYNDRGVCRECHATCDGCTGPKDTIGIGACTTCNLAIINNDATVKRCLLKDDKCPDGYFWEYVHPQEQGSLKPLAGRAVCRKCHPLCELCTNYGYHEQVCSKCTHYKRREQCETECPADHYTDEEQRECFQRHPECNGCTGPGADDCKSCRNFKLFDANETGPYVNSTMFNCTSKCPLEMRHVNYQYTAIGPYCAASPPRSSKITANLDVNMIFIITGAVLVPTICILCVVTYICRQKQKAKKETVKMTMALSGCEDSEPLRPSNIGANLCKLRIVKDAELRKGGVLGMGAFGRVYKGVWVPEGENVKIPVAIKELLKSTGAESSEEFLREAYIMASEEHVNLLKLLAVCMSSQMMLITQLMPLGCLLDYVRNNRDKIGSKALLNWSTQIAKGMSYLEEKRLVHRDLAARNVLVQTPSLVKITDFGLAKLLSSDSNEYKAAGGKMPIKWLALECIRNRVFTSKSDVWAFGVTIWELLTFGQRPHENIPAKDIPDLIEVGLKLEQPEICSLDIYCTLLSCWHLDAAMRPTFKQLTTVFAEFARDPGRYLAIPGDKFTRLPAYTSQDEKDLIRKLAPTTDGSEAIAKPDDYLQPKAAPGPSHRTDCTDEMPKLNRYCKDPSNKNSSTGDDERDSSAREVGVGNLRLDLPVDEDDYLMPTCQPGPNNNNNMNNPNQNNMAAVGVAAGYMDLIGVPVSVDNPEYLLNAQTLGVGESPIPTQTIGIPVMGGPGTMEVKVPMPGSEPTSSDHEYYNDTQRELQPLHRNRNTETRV

Drosophila Delta, P10041 = target: T3, Drosophila Delta, P10041
T3 chain: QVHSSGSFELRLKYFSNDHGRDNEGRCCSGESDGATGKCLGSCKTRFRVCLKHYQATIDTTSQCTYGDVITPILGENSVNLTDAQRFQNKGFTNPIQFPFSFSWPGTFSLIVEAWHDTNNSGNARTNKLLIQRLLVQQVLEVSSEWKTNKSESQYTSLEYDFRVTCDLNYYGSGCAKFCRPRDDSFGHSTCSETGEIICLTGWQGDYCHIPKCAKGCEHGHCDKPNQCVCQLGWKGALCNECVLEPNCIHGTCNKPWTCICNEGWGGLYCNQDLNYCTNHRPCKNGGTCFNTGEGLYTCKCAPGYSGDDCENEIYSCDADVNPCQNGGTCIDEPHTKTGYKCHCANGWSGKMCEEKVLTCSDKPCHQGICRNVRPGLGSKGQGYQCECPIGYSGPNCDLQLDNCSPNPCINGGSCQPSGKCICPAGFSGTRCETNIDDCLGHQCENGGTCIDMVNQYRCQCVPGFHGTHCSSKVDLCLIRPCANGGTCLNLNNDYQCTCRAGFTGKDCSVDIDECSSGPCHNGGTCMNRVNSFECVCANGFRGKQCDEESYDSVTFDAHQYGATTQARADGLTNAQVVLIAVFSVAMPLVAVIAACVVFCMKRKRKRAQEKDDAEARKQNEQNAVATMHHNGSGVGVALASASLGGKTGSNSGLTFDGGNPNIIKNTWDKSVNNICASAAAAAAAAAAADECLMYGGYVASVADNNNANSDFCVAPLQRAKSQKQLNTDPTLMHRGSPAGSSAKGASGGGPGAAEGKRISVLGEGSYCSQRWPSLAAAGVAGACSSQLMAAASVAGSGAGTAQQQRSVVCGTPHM

O=c1oc(Cl)c(Cl)c2ccccc12 [3,4-DCI]
Rhomboid activity (summary statement) (Rhomboid-1): inhibit
inhibition of Rhomboid activity, standard cleavage assay with panel of inhibitors (Rhomboid-1; 10-100:M): strongly inhibited
expression or secretion of an artificially truncated form of Spitz (extracellular domain) [1]: did not effect

CCOC(=O)[C@H]1O[C@@H]1C(=O)N[C@@H](CC(C)C)C(=O)NCCC(C)C [E64d]
inhibition of Rhomboid activity, standard cleavage assay with panel of inhibitors (Rhomboid-1; 50:M): No inhibition

O=C(O)/C(S)=C/c1ccc(I)cc1 [PD150606]
inhibition of Rhomboid activity, standard cleavage assay with panel of inhibitors (Rhomboid-1; concentration not given): No inhibition

Cc1ccc(S(=O)(=O)N[C@@H](Cc2ccccc2)C(=O)CCl)cc1 [TPCK]
Rhomboid activity (summary statement) (Rhomboid-1): inhibit
inhibition of Rhomboid activity, standard cleavage assay with panel of inhibitors (Rhomboid-1; 10-100:M): strongly inhibited
expression or secretion of an artificially truncated form of Spitz (extracellular domain) [1]: did not effect

CCCC[C@@H](C=O)NC(=O)[C@H](CC(C)C)NC(=O)[C@H](CC(C)C)NC(=O)OCc1ccccc1 [gamma secretase inhibitor I] (Cbz-Leu-Leu-[Nle]-aldehyde)
inhibition of Rhomboid activity, standard cleavage assay with panel of inhibitors (Rhomboid-1; 25:M): No inhibition

CNC(=O)[C@H](Cc1c[nH]c2ccccc12)NC(=O)[C@@H](CC(=O)NO)CC(C)C [ilomostat]
Rhomboid-1-dependent cleavage of Spitz (Rhomboid-1; concentration not given): insensitive
inhibition of Rhomboid activity, standard cleavage assay with panel of inhibitors (Rhomboid-1; concentration not given): No inhibition

CC(=O)N[C@@H](CC(C)C)C(=O)N[C@@H](CC(C)C)C(=O)N[C@H](C=O)CCCNC(=N)N [leupeptin]
inhibition of Rhomboid activity, standard cleavage assay with panel of inhibitors (Rhomboid-1; 100:M): No inhibition

CC(C)CC(=O)N[C@H](C(=O)N[C@H](C(=O)N[C@@H](CC(C)C)[C@@H](O)CC(=O)N[C@@H](C)C(=O)N[C@@H](CC(C)C)[C@@H](O)CC(=O)O)C(C)C)C(C)C [pepstatin A] (Isovaleryl-VV[Sta]A[Sta]-OH)
inhibition of Rhomboid activity, standard cleavage assay with panel of inhibitors (Rhomboid-1; 50:M): No inhibition

Drosophila Rhomboid-2
protease activity against the uncleavable form of Spitz [2]: they could not cleave the TGFα TMD
protease activity against the TGFα TMD with a restored G143 [3]: did cleave when only G143 was added back

Drosophila Rhomboid-3
protease activity against the uncleavable form of Spitz [2]: they could not cleave the TGFα TMD
protease activity against the TGFα TMD with a restored G143 [3]: did cleave when only G143 was added back

B1: Human RHBDL2 (protein)
chain: MNLNMGREMKEELEEEEKMREDGGGKDRAKSKKVHRIVSKWMLPEKSRGTYLERANCFPPPVFIISISLAELAVFIYYAVWKPQKQWITLDTGILESPFIYSPEKREEAWRFISYMLVHAGVQHILGNLCMQLVLGIPLEMVHKGLRVGLVYLAGVIAGSLASSIFDPLRYLVGASGGVYALMGGYFMNVLVNFQEMIPAFGIFRLLIIILIIVLDMGFALYRRFFVPEDGSPVSFAAHIAGGFAGMSIGYTVFSCFDKALLKDPRFWIAIAAYLACVLFAVFFNIFLSPAN
protease activity against the uncleavable form of Spitz [4]: they could not cleave the TGFα TMD
protease activity against the TGFα TMD with a restored G143 [5]: did cleave when only G143 was added back

B2: Drosophila Rhomboid-1 (triple HA tag at the N-terminus) (protein)
chain: MENPTQNVNETKVDLGQEKEKEASQEEEHATAAKETIIDIPAACSSSSNSSSYDTDCSTASSTCCTRQGEHIYMQREAIPATPLPESEDIGLLKYVHRQHWPWFILVISIIEIAIFAYDRYTMPAQNFGLPVPIPSDSVLVYRPDRRLQVWRFFSYMFLHANWFHLGFNIVIQLFFGIPLEVMHGTARIGVIYMAGVFAGSLGTSVVDSEVFLVGASGGVYALLAAHLANITLNYAHMKSASTQLGSVVIFVSCDLGYALYTQYFDGSAFAKGPQVSYIAHLTGALAGLTIGFLVLKNFGHREYEQLIWWLALGVYCAFTVFAIVFNLINTVTAQLMEEQGEVITQHLLHDLGVS
cleavage of Spitz/TGFα TMD chimeras, without Star, with batimastat [4]: replacing the remaining 5 residues (residues 140-160) abolished cleavage
cleavage of type-I membrane proteins [6]: Rhomboid-1 could not cleave other type-I membrane proteins including ... human TGFα
cleavage of type-I membrane proteins (human TGN38): Rhomboid-1 could not cleave other type-I membrane proteins including ... human TGN38
cleavage of the uncleavable Spitz-TGFα chimera with single Spitz residues put back [5]: substitution of only Spitz residue G143 restored cleavage of this chimeric substrate
cleavage of type-I membrane proteins [7]: Rhomboid-1 could not cleave other type-I membrane proteins including Drosophila EGF receptor
cleavage of type-I membrane proteins (Drosophila Delta, P10041): Rhomboid-1 could not cleave other type-I membrane proteins including ... Drosophila Delta
